Measured values taken from patent US20160039897A1, “COMPOUNDS AND METHODS FOR TREATING OBESITY AND CONTROLLING WEIGHT” (THE UNIVERSITY OF NORTH CAROLINA AT CHAPEL HILL, priority 2013, published 2016).

Assays:
IGFBP-2−/− mice [1] = assay: Inguinal and visceral fat pad, liver and heart weights at sacrifice; format: in vivo, mouse; conditions: after 12 weeks; for Inguinal fat / Visceral fat: pegylated peptide 50 μg IP 3 times/week, mean±SE
Experimental: (§1) Body fat and lean muscle mass was measured at weeks 0 and 12 of treatment by magnetic resonance imaging analysis (EchoMRI-100, Echo Medical Systems, Houston, Tex.), a technique that measures fat mass and lean mass in unanesthetized animals (Kelly S A, et. al., 2010). After completion of 12 weeks of treatment, the mice were sacrificed. Blood was collected by cardiac puncture and allowed to sit for 4 hours before centrifuging at 3500 rpm×15 min. The serum was aspirated and stored at −20° C. until analysis. Abdominal inguinal and visceral fat pads were carefully dissected from each animal according to defined anatomical landmarks. All subcutaneous fat between the lower part of the rib cage and the upper thigh was considered abdominal subcutaneous inguinal fat, whereas all fat found along the mesentery starting at the lesser curvature of the stomach and ending at the sigmoid colon was considered visceral fat. Fat depots were blotted dry prior to weighing. The right inguinal fat pad was dissected separately and the triglyceride content of this tissue was determined by a colorimetric analysis (Pointe Scientific, Canton, Mich.), as previously described (Dann H, Kimura S 1992). Serum adiponectin and leptin were measured by ELISA following manufacturer's instructions (Millipore, Billerica, Mass.).
(§2) Body composition and serum adipokine measurement. Body fat and lean mass were measured at weeks 0 and 12 of treatment by magnetic resonance imaging analysis (EchoMRI-100, Echo Medical Systems, Houston, Tex.), using unanesthetized animals. After 12 weeks of treatment, the mice were sacrificed and blood was collected by cardiac puncture and centrifuged at 3500 rpm×15 min. The serum was stored at −20° C. Abdominal inguinal and visceral fat pads were dissected from each animal according to defined anatomical landmarks. Subcutaneous fat between the rib cage and the upper thigh was termed subcutaneous inguinal fat, whereas all fat from the lesser curvature of the stomach to the sigmoid colon was termed visceral fat. Fat depots were blotted dry prior to weighing. The right inguinal fat pad was dissected separately and the triglyceride content of this tissue was determined by a calorimetric analysis (Pointe Scientific, Canton, Mich. Serum adiponectin and leptin were measured by ELISA following manufacturer's instructions (Millipore, Billerica, Mass.).

IGFBP-2−/− mice [2] = assay: Serum adiponectin and leptin by ELISA; format: in vivo, mouse; conditions: after 12 weeks
Experimental: as §1, §2

IGFBP-2−/− mice [3] = assay: Triglyceride content of right inguinal fat pad (colorimetric); format: in vivo, mouse; conditions: after 12 weeks; vs control peptide
Experimental: as §1, with “All subcutaneous fat between the lower part of the rib cage and the upper thigh was considered abdominal subcutaneous inguinal fat, whereas all fat found along the mesentery starting at the lesser curvature of the stomach and ending at the sigmoid colon was considered visceral fat. Fat depots were blotted dry prior to weighing.” left out
Body composition and serum adipokine measurement. Body fat and lean mass were measured at weeks 0 and 12 of treatment by magnetic resonance imaging analysis (EchoMRI-100, Echo Medical Systems, Houston, Tex.), using unanesthetized animals. […]

[4] = system: primary preadipocytes from IGFBP-2−/− mice; assay: Differentiation of primary preadipocytes (immunoblot of adiponectin, aP2, PPARγ; Oil Red O staining); format: cell-based, mouse; conditions: for % suppression of adiponectin / reduction of PPARγ expression / reduction of aP2 expression / reduction of adiponectin expression: mean±SE; for % suppression of adiponectin: N=3; for relative potency as inhibitor of adipogenesis / preadipocyte differentiation (in words): comparison between peptides and proteins, immunoblot and Oil Red O; for reduction of PPARγ expression / reduction of aP2 expression / reduction of adiponectin expression: peptide 6 μg/ml in differentiation medium vs differentiation medium only, immunoblot relative to β-actin
Experimental: Primary preadipocytes were isolated from epididymal fat pads of 6 week old IGFBP-2^−/− mice. The cells were cultured using a previously described method (Boney, C M et al., 1994). The fat pads were weighed and the tissue was digested with an equal volume (W/V) of collagenase type A (Roche Applied Science, Indianapolis, Ind.) in HEPES buffer (0.1M and 1.5% BSA) for 45 min at 37° C. Following complete digestion, the preadipocytes were separated from the stromal vascular cells by centrifugation at 500×g for 5 min. The pelleted cells were washed with DMEM containing 30 mM glucose (Gibco, Grand Island, N.Y.) and passed through a 100 μm mesh filter (BD Biosciences, Bedford, Mass.). The cells were then plated in 6-well plates (Falcon Corp., Franklin Lakes, N.J.) at a density of 1.2-1.5×10^4 cells/ml in DMEM containing 30 mM glucose supplemented with penicillin (100 U/ml), streptomycin (100 μg/ml), and 10% fetal bovine serum hereafter referred to as standard medium. The cultures had the medium changed every 2 days until they reached confluency. Two day post-confluent cells were then exposed to differentiation medium (serum free DMEM containing 0.5 mM IBMX, 1 μM dexamethasone, and 5 μg/mL insulin) and incubated for 2 days. Experimental treatments that were added to this medium included either wild type IGFBP-2 (3 μg/ml), HBD1 peptide (6 μg/ml), HBD1 control peptide (6 μg/ml), HBD2 peptide (6 μg/ml), HBD2 control peptide (6 μg/ml), HBD1 mutant IGFBP-2 (3 μg/ml) or the HBD2 mutant IGFBP-2 (3 μg/ml). Cultures were maintained for two additional days in the standard medium supplemented with 5 μg/ml insulin. Thereafter, the cultures were kept in the fresh standard medium without insulin for additional two days.
After treatment, the cells were rinsed with PBS for two times and fixed with 10% formalin for 30 min at room temperature. After rinsing with distilled water for twice, 100% propylene glycol (Poly Scientific, Bay Shore, N.Y.) was added and incubated for 5 min. Before adding Oil Red O solution (Poly Scientific, Bay Shore, N.Y.), propylene glycol was removed. The cultures were incubated for 10 min at 60° C. Removing Oil Red O solution, the cultures were incubated with 80% propylene glycol for 5 min, After incubation, the cultures were rinsed with tap water twice. Images were captured using an Olympus IX81 inverted microscope.
Differentiated adipocytes were lysed in ice-cold lysis buffer (Xi et al., 2008). After centrifugation at 14,000×g for 10 min, solubilized proteins were quantified by the Bradford method (Thermo Scientific, Rockford, Ill.). Equal protein amounts of lysates were loaded onto a SDS-polyacrylamide gel and the proteins were separated, then transferred to an Immobilon filter and visualized by immunoblotting using the appropriate antibody. The primary antibody dilutions that were used were 1:1000 for the anti-adiponectin antibody (Affinity BioReagents, Golden, Colo.), 1:500 for the anti-PPARγ antibody (Cell Signaling Technology Inc., Beverly, Mass.), 1:2000 for the anti-apt antibody (ProSci Inc., Poway, Calif.) and 1:5000 for the anti-β-actin antibody (Sigma Chemical Company, St. Louis, Mo.). The immune complexes were visualized using enhanced chemiluminescence (Thermo Fischer Scientific, Rockford, Ill.).
Preadipocytes were prepared from mice and grown in culture as described herein. The respective mouse and human peptides were added to cells and the cells were lysed and the lysates were run on SDS gels as described. Immunoblotting for adiponectin was carried as described. Three concentrations of each peptide, 0.7, 2.0 and 6.0 μg/ml, were compared. The results were expressed as % suppression mean±SE(N=3) and were as follows.
Cell culture of primary preadipocytes. Preadipocytes were isolated from epididymal fat pads of IGFBP-2^−/− mice. The cultures had the medium changed every 2 days until they reached confluency. […]

Sequence	reduction of inguinal fat pad (percentage of body weight) compared to control peptide (IGFBP-2−/− mice [1])	reduction of visceral fat (percentage of body weight) compared to control peptide (IGFBP-2−/− mice [1]) [%]	Inguinal fat (IGFBP-2−/− mice [1])	Visceral fat (IGFBP-2−/− mice [1]) [g]	increase of serum leptin level compared to control peptide treated mice (IGFBP-2−/− mice [2])	serum adiponectin level lower than in control peptide treated mice (IGFBP-2−/− mice [2]) [%]	serum adiponectin level reduction compared to HBD1 peptide treated mice (IGFBP-2−/− mice [2]) [%]	reduction of triglyceride content in the inguinal fat pad (IGFBP-2−/− mice [3]) [%]	% suppression of adiponectin ([4]; 0.7 μg/ml peptide) [%]	% suppression of adiponectin ([4]; 2.0 μg/ml peptide) [%]	% suppression of adiponectin ([4]; 6.0 μg/ml peptide) [%]	potency in inhibiting preadipocyte differentiation relative to the HBD1 peptide ([4]; HBD2 peptide vs HBD1 peptide) [fold]	relative potency as inhibitor of adipogenesis / preadipocyte differentiation (in words) [4]	relative potency as inhibitor of adipogenesis / preadipocyte differentiation (in words) ([4]; listed as human peptide)	reduction of PPARγ expression [4] [%]	reduction of aP2 expression [4]	reduction of adiponectin expression [4]	relative potency as inhibitor of adipogenesis / preadipocyte differentiation (in words) ([4]; listed as mouse HBD1 peptide)
KHGLYNLKQCKMSLNGQR [HBD2 peptide]	32±7%	44±7	0.23 ± 0.02 g	0.25 ± 0.02	57±9%	36±4	24±5	37±9	49.4 ± 10	87.9 ± 6.2	96.9 ± 7.0	1.8	most potent inhibitors of adipogenesis	equipotent	67±7	completely inhibited	completely inhibited	
KHLSLEEPKKLRP [HBD1 peptide]	had no effect	24±5	had no effect	0.34 ± 0.01	had no effect			22±2					less activity		47±9	51±2%	66±10%	equivalent in inhibiting preadipocyte differentiation
